# Results: patent publication US20240270771A1, “Compound containing phosphate group, pharmaceutical composition containing same, preparation method therefor and use thereof” (SHANGHAI RAISING PHARMACEUTICAL CO., LTD., priority 2021, published 2024)
# What was measured:
# [1] = Pharmacokinetic study, absorption test (TM and TDP in whole blood); format: in vivo, SD rats; conditions: same drug dose, single gavage, rats
# Procedure: (§1) The SD rats used in this test were purchased from Zhejiang Charles rive Laboratory Animal Co., Ltd. Both male and female rats of SPF grade weighting about 250 g were used.
# (§2) Preparation of the test article: a proper amount of test article was weighed and ground as fine powder in a mortar. A certain amount of the vehicle was added to a proper container, and then the ground test article was added to the container under magnetic stirring. The mixture was stirred until the appearance is uniform.
# The SD rats were divided into 3 groups (6 rats in each group, half male and half female). […] Blood was collected (about 200 µL/time) before drug administration (0 min) and 3 min, 8 min, 15 min, 30 min, 1 h, 2 h, 3 h, 5 h, 8 h, 12 h, 24 h and 48 h after drug administration. Blood was anticoagulated with EDTA and placed on ice after collection. […]
# (§3) The concentrations of TM and TDP in the samples were determined by HPLC-FLD.
# (§4) The non-compartment model of the DAS software was used to calculate the pharmacokinetic parameters of TM and TDP in blood of rats after administration. The concentration of TM in the brain tissue after the drug administration in rats was measured, and the mean value and standard deviation were calculated. The area under the drug-time curve AUC was calculated using the trapezoidal method.
# [2] = Pharmacokinetic study, brain distribution test (TM in brain and whole blood); format: in vivo, SD rats; conditions: single gavage to rats
# Procedure: as §1, §2
# The male SD rats were divided into three groups (16 rats in each group) (4 animals were sacrificed at 4 time points). […] The animals were sacrificed at 5 min, 1 h, 3 h, and 9 h after the administration. The brain was taken out immediately after sacrifice, rinsed with ice-cold water and rinsed. 50 mg of the brain tissue was weighed, added to 0.45 mL of 100 mM dipotassium hydrogen phosphate buffer (pH=5.0) and homogenized. Blood samples were taken simultaneously and anticoagulated with EDTA. After collection, blood samples were placed on ice. 150 μL of whole blood was taken and 150 μL of 5.2% perchloric acid was added to determine TM. Another 4 animals were gavage administered with normal saline for the determination of endogenous TM concentration. All samples were frozen and stored in a −80° C. refrigerator.
# as §3, §4
compound,measurement,setting,value
"CCCC(CCC)C(=O)S/C(CCOP(=O)(O)O)=C(/C)N(C=O)Cc1cnc(C)nc1N [Compound 1, (Z)—S-(2-(N-((4-amino-2-methylpyrimidin-5-yl)methyl)formamido)-5-(phosphonooxy)pent-2-en-3-yl) 2-propylpentanethioate]",TM and TDP exposures compared with BTMP and Comparative compound 2 administration groups,[1],higher
same,t1/2 of TDP compared with BTMP or Comparative compound 2 administration group,[1],significantly higher
same,"AUC of TM in the brain, times of that of BTMP administration group",[2],1.56 times
same,"AUC of TM in the brain, times of that of the Comparative compound 2 administration group",[2],2.08 times
same,AUC of TM in the brain,"[2]; trapezoidal method, calculated after deducting the concentration at time zero",1156.6 ng·h/g
